{"source": "paper PMC10380488", "about": "“Cx43 Hemichannel and Panx1 Channel Modulation by Gap19 and ^10Panx1 Peptides” (International Journal of Molecular Sciences, 2023)", "key": {"Panx1 channels [1]": {"molecular_target": "T1, Panx1 channels (Rattus norvegicus, UniProt P60570)", "T1 construct": "expressed in transfected cells; host or cells: C6 glioma cells (C6-Panx1), gift of Dr Christian C; Naus", "T1 sequence (P60570 whole entry)": "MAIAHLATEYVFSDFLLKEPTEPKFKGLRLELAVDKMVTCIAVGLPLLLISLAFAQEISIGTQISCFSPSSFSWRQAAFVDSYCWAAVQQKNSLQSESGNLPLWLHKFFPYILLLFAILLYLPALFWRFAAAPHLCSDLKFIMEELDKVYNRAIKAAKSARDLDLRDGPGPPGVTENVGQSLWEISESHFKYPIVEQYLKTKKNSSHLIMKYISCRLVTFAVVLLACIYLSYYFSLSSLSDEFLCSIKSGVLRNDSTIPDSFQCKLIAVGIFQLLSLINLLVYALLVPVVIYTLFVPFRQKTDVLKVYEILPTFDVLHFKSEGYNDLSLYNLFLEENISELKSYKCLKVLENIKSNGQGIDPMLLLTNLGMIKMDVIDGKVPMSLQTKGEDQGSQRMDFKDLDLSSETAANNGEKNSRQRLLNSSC", "assay": "Whole-cell patch-clamp, unitary Panx1 channel current activity in C6-Panx1 cells", "type": "cell-based", "details": "for nominal open probability (NPo) of Panx1 channels: C6-Panx1, step −30 to +70 mV, 30 s, mean ± SEM, control 0.37 ± 0.02", "from_the_text": "(§1) We used HeLa cells stably transfected with Cx43 (HeLa-Cx43 [56]); endogenous expression of Panx1 is very low or absent in non-transfected HeLa cells. C6 glioma cells stably transfected with Panx1 (C6-Panx1, C-terminally myc-tagged; kind gift of Dr Christian C. Naus, University of British Columbia, Canada) were used for the Panx1 channel studies; Cx43 expression is low or undetectable [61] in these cells. HeLa cells were maintained in Dulbecco’s modified Eagle’s medium (DMEM; Invitrogen, Gent, Belgium), and C6 cells were grown in DMEM:Ham’s F12 (1:1—Invitrogen, Merelbeke, Belgium), all supplemented with 10% fetal bovine serum (FBS), 2 mM glutamine, 10 U/mL penicillin, 10 µg/mL streptomycin and 0.25 µg/mL fungizone. Stable exogenous expressions were maintained by supplementation of 1 and 3 µg/mL puromycin (Sigma-Aldrich, Bornem, Belgium) for HeLa-Cx43 and C6-Panx1 cells, respectively. Stable transfectants were subcultured into puromycin-free medium 2 days prior to experimentation. Cells were maintained at 37 °C and 10% (HeLa-Cx43) or 5% (C6-Panx1) CO2.\n(§2) All experimental data were obtained with the patch-clamp technique in whole-cell recording mode on HeLa-Cx43 and C6-Panx1 cells. Extracellular solution was composed of the following (in mM): 150 NaCl, 4 CsCl, 2 CaCl2, 2 MgCl2, 2 pyruvic acid, 5 glucose and 5 HEPES at pH of 7.4, while the pipette solution consisted of the following (in mM): 125 CsCl, 10 sodium aspartate (NaAsp), 0.26 CaCl2, 1 MgCl2, 2 EGTA, 10 tetraethylammonium (TEA)-Cl and 5 HEPES at pH 7.2. The free Ca^2+ concentration of the pipette solution was estimated to be ~50 nM as calculated with WEBMAX (https://somapp.ucdmc.ucdavis.edu/pharmacology/bers/maxchelator/webmaxc/webmaxcS.htm; accessed on 20 September 2020). Whole-cell recording was performed under control conditions and in the presence of Gap19 or ^10Panx1. Gap19 was included in the pipette solution, while ^10Panx1 was added externally and preincubated for 45 min. Recordings were commenced 2 min after establishment of the whole-cell configuration. Currents were recorded with an EPC 7 PLUS patch-clamp amplifier (HEKA Elektronik, Germany). Unitary current activities were elicited by stepping the cells from a holding potential of −30 mV to a membrane potential (Vm) of +70 mV for 30 s. Data were digitized at 4 KHz using an NI USB-6221 data acquisition device (National Instruments, Austin, TX, USA) and WinWCP acquisition software designed by Dr. J. Dempster (University of Strathclyde, United Kingdom). Measured currents were filtered by a 7-pole Bessel low-pass filter at 1 KHz cut-off frequency. Transition analysis was performed as reported in [16]. Unitary channel conductances were determined from transition histograms as well as from all-point histograms and were obtained by fitting their frequencies to Gaussian distributions. Channel opening activity is expressed as nominal open probability NPo, denoting the number of active channels in the patch multiplied by the open probability.\n(§3) Data were processed using Clampfit version 11.2 (Molecular Devices, San Jose, USA) and HemiGUI software as previously described. Results are expressed as mean ± SEM (unless otherwise stated), with n giving the number of traces, N the number of cells, and N the number of experiments on different cell culture dishes. Multiple groups were compared by one-way analysis of variance with post-hoc Dunnett’s or Bonferroni multiple comparison tests, making use of GraphPad PRISM 5.0 (GraphPad Software, Inc., La Jolla, CA). Results were considered statistically significant when p ≤ 0.05 (*; # for p ≤ 0.05, **; ## for p ≤ 0.01, ***; ### for p ≤ 0.001, and ****; #### for p ≤ 0.0001)."}, "Cx43 HCs [2]": {"tested_on": "Cx43 HCs", "assay": "Whole-cell patch-clamp, unitary Cx43 hemichannel current activity in HeLa-Cx43 cells", "type": "cell-based", "details": "for nominal open probability (NPo) of Cx43 HCs: HeLa-Cx43, step −30 to +70 mV, 30 s, mean ± SEM, control 0.48 ± 0.02; for conductance γ of Cx43 HC, subconductance state, transition histogram / unitary conductance γ of Cx43 HC, fully open state, transition histogram: Figure 3B, mean ± SD", "from_the_text": "as §1, §2, §3"}, "Cx43 or Panx1 channels": {"tested_on": "Cx43 or Panx1 channels", "details": "100 μM extracellular; HeLa cells expressing Cx43 or Panx1; cited from earlier work", "from_the_text": "(§4) Connexins and pannexins are two ubiquitous but distinct protein families forming membrane hemichannels (HCs) and channels in the plasma membrane, respectively. They facilitate the exchange of ions and small molecules (MW ≤ 1.5 kDa) between the intracellular and the extracellular compartment upon opening. Among these respective families, connexin-43 (Cx43) and pannexin-1 (Panx1) are the most abundant isotypes in the human body expressed in a wide array of tissues. Panx1 and Cx43 have several common properties, including the following: (i) an analogous tetra-spanning transmembrane topology with ..."}, "Panx1 channels [3]": {"molecular_target": "T1, Panx1 channels", "details": "200 µM extracellular; high extracellular K^+; cited from earlier work", "from_the_text": "as §4"}, "Cx43 C-terminal tail": {"tested_on": "Cx43 C-terminal tail", "details": "cited from earlier work"}, "Cx43 HCs [4]": {"tested_on": "Cx43 HCs", "details": "cited from earlier work", "from_the_text": "However, this concentration decreases the NPo of Cx43 HCs by ~83% (Figure 2B; for traces, see Figure 3)."}, "[5]": {"details": "100 μM Gap19 intracellular, N = 12, n = 98"}, "[6]": {"details": "200 μM Gap19 intracellular, N = 15, n = 122"}}, "note": "Where “and” joins values, the source holds several entries; their conditions need not be identical. Equal entries are not always repeated. Entries after “also recorded” stand apart in the source; their conditions may differ."}
{"sequence": "KQIEIKKFK [Gap19]", "values": [{"measurement": "effect on Panx1 channels", "setting": "Panx1 channels [1]; 100 μM Gap19 intracellular", "value": "without affecting the Panx1 channels"}, {"measurement": "nominal open probability (NPo) of Panx1 channels", "setting": "Panx1 channels [1]; 100 μM Gap19 intracellular (pipette), N = 12 cells, n = 76 traces", "value": "0.34 ± 0.03"}, {"measurement": "nominal open probability (NPo) of Panx1 channels", "setting": "Panx1 channels [1]; 200 μM Gap19 intracellular (pipette), N = 9 cells, n = 70 traces", "value": "0.30 ± 0.03"}, {"measurement": "effect on open-state events of Panx1, all-point histograms", "setting": "Panx1 channels [1]; 200 µM Gap19 intracellular, Figure 1C", "value": "some effect; also recorded: to some extent"}, {"measurement": "nominal open probability (NPo) of Panx1 channels", "setting": "Panx1 channels [1]; 500 μM Gap19 intracellular (pipette), N = 10 cells, n = 87 traces", "value": "0.28 ± 0.03"}, {"measurement": "reduction of NPo of Panx1 channels", "setting": "Panx1 channels [1]; 500 μM Gap19 intracellular, vs control, significant", "value": "~ 25% and 26%"}, {"measurement": "effect on Panx1 channel activity (NPo)", "setting": "Panx1 channels [1]; 100 and 200 μM Gap19 intracellular (below 500 μM)", "value": "did not significantly affect the NPo of the Panx1 channel; also recorded: non-significant effects on Panx1 channel activity; also recorded: without affecting Panx1 channel function; also recorded: No Effect below 500 µM"}, {"measurement": "fast-flickering closures of Panx1 channel", "setting": "Panx1 channels [1]; traces of Panx1 channel activity (Supplementary Figure S2)", "value": "not observed"}, {"measurement": "reduction of NPo of Cx43 HCs", "setting": "Cx43 HCs [2]; 100 μM Gap19 intracellular", "value": "significantly reduces the NPo of Cx43 HCs; also recorded: more than halved the NPo"}, {"measurement": "nominal open probability (NPo) of Cx43 HCs", "setting": "Cx43 HCs [2]; 100 μM Gap19 intracellular (pipette), N = 12 cells, n = 98 traces", "value": "0.21 ± 0.02"}, {"measurement": "nominal open probability (NPo) of Cx43 HCs", "setting": "Cx43 HCs [2]; 200 μM Gap19 intracellular (pipette), N = 15 cells, n = 122 traces", "value": "0.18 ± 0.02"}, {"measurement": "nominal open probability (NPo) of Cx43 HCs", "setting": "Cx43 HCs [2]; 500 μM Gap19 intracellular (pipette), N = 12 cells, n = 88 traces", "value": "0.08 ± 0.01"}, {"measurement": "reduction of NPo of Cx43 HCs", "setting": "Cx43 HCs [2]; 500 μM Gap19 intracellular, vs control", "value": 84, "unit": "%"}, {"measurement": "conductance γ of Cx43 HC, subconductance state, transition histogram", "setting": "Cx43 HCs [2]; [5]", "value": "86 ± 31", "unit": "pS"}, {"measurement": "unitary conductance γ of Cx43 HC, fully open state, transition histogram", "setting": "Cx43 HCs [2]; [5]", "value": "201 ± 50", "unit": "pS"}, {"measurement": "conductance γ of Cx43 HC, subconductance state, transition histogram", "setting": "Cx43 HCs [2]; [6]", "value": "87 ± 27", "unit": "pS"}, {"measurement": "unitary conductance γ of Cx43 HC, fully open state, transition histogram", "setting": "Cx43 HCs [2]; [6]", "value": "201 ± 45", "unit": "pS"}, {"measurement": "conductance γ of Cx43 HC, all-point histogram", "setting": "Cx43 HCs [2]; Figure 3C, 100 μM Gap19 intracellular", "value": "204 ± 46", "unit": "pS"}, {"measurement": "inhibition of Cx43 HC opening activity (in words)", "setting": "Cx43 HCs [2]; Gap19 intracellular / ^10Panx1 extracellular, 100-500 μM (Gap19 100–200 μM)", "value": "Inhibited; also recorded: concentration-dependent and significant inhibition; also recorded: concentration-dependently inhibits Cx43 HCs; also recorded: significantly inhibits Cx43 HCs"}, {"measurement": "effect on Cx43 HC gating (fully open state vs subconductance state)", "setting": "Cx43 HCs [2]; Gap19 intracellular / ^10Panx1 extracellular, from 100 µM", "value": "reduced the frequency of transitions to the fully open state and increased the propensity of subconductance transitions starting from 100 µM; also recorded: increased gating to the subconductance state; also recorded: acts as a gating modifier, reducing transitions to the fully open state (~210 pS) while increasing the number of transitions to the subconductance state (~80 pS"}, {"measurement": "selectivity for Cx43 or Panx1 channels", "setting": "Cx43 or Panx1 channels", "value": "good selectivity"}, {"measurement": "effect on ATP release from Panx1-overexpressing cells", "setting": "Panx1 channels [3]", "value": "does not affect ATP release"}, {"measurement": "interaction with the Cx43 C-terminal tail", "setting": "Cx43 C-terminal tail", "value": "interacts with the Cx43 C-terminal tail"}, {"measurement": "effect on Cx43 HC gating", "setting": "Cx43 HCs [4]", "value": "gating modifier"}]}
